According to PubChem BioAssay AID328 (DTP/NCI, 2004):
Values joined by “and” are separate entries in the source; they are usually repeats but may differ in a detail not shown here. Equal entries are not always repeated. Inconclusive results and toxic doses are left out. Non-standard residues stand in square brackets, D forms with d. Residues, ends and D or L forms follow the SMILES beside them. Ac5c = NC1(C(=O)O)CCCC1

Test system: BDF1 mice, P388 leukemia ip, median survival T/C
Test: NCI In Vivo Anticancer Drug Screen. Data for tumor model P388 Leukemia (intraperitoneal) in B6D2F1 (BDF1) mice
Details: endpoint: median survival time, higher = longer survival
How it was run: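 In tumour-bearing mice, survival after compound treatment is set against the vehicle group and given as a quotient.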

[1] = dose: 50.0 mg/kg/injection, schedule: Q01DX009 (ip), vehicle: saline
[2] = dose: 50.0 mg/kg/injection, schedule: Q04DX003 (ip), vehicle: saline
[3] = dose: 200.0 mg/kg/injection, schedule: Q01DX009 (ip), vehicle: saline
[4] = dose: 1.6 micrograms/kg/injection, schedule: Q01DX009 (ip), vehicle: saline + alcohol
[5] = dose: 3.1 micrograms/kg/injection, schedule: Q01DX009 (ip), vehicle: saline + alcohol
[6] = dose: 6.2 micrograms/kg/injection, schedule: Q01DX009 (ip), vehicle: saline + alcohol
[7] = dose: 12.5 micrograms/kg/injection, schedule: Q01DX009 (ip), vehicle: saline + alcohol
[8] = dose: 25.0 micrograms/kg/injection, schedule: Q01DX009 (ip), vehicle: saline + alcohol
[9] = dose: 50.0 mg/kg/injection, schedule: Q04DX003 (ip), vehicle: saline with Tween-80
[10] = dose: 100.0 mg/kg/injection, schedule: Q04DX003 (ip), vehicle: saline with Tween-80
[11] = dose: 200.0 mg/kg/injection, schedule: Q04DX003 (ip), vehicle: saline with Tween-80
[12] = dose: 400.0 mg/kg/injection, schedule: Q04DX003 (ip), vehicle: saline with Tween-80

O=C1C=CC(=O)O1 (tested in a mixture with another compound)
T/C (dose: 0.19 mg/kg/injection, schedule: Q01DX009 (ip), vehicle: Klucel (hydroxypropylcellulose) (HPC)): 100 % of control
T/C (dose: 0.22 mg/kg/injection, schedule: Q01DX009 (ip), vehicle: Klucel (hydroxypropylcellulose) (HPC)): 95 % of control
T/C (dose: 0.39 mg/kg/injection, schedule: Q01DX009 (ip), vehicle: Klucel (hydroxypropylcellulose) (HPC)): 118 % of control
T/C (dose: 0.44 mg/kg/injection, schedule: Q01DX009 (ip), vehicle: Klucel (hydroxypropylcellulose) (HPC)): 90 % of control
T/C (dose: 0.78 mg/kg/injection, schedule: Q01DX009 (ip), vehicle: Klucel (hydroxypropylcellulose) (HPC)): 90 % of control
T/C (dose: 0.88 mg/kg/injection, schedule: Q01DX009 (ip), vehicle: Klucel (hydroxypropylcellulose) (HPC)): 95 % of control
T/C (dose: 1.3 mg/kg/injection, schedule: Q01DX009 (ip), vehicle: Klucel (hydroxypropylcellulose) (HPC)): 109 % of control
T/C (dose: 1.56 mg/kg/injection, schedule: Q01DX009 (ip), vehicle: other): 95 % of control
T/C (dose: 2.3 mg/kg/injection, schedule: Q04DX003 (ip), vehicle: Klucel (hydroxypropylcellulose) (HPC)): 91 % of control
T/C (dose: 3.5 mg/kg/injection, schedule: Q04DX003 (ip), vehicle: Klucel (hydroxypropylcellulose) (HPC)): 116 % of control
T/C (dose: 5.2 mg/kg/injection, schedule: Q04DX003 (ip), vehicle: Klucel (hydroxypropylcellulose) (HPC)): 100 % of control
T/C (dose: 5.8 mg/kg/injection, schedule: Q04DX003 (ip), vehicle: Klucel (hydroxypropylcellulose) (HPC)): 100 % of control
T/C (dose: 6.25 mg/kg/injection, schedule: Q01DX009 (ip), vehicle: saline): 88 % of control
T/C (dose: 7.2 mg/kg/injection, schedule: Q04DX003 (ip), vehicle: Klucel (hydroxypropylcellulose) (HPC)): 95 % of control
T/C (dose: 8.8 mg/kg/injection, schedule: Q04DX003 (ip), vehicle: Klucel (hydroxypropylcellulose) (HPC)): 100 % of control
T/C (dose: 12.5 mg/kg/injection, schedule: Q01DX009 (ip), vehicle: saline): 97 % of control
T/C (dose: 12.5 mg/kg/injection, schedule: Q04DX003 (ip), vehicle: saline): 104 % of control
T/C (dose: 13.0 mg/kg/injection, schedule: Q04DX003 (ip), vehicle: Klucel (hydroxypropylcellulose) (HPC)): 104 % of control
T/C (dose: 25.0 mg/kg/injection, schedule: Q04DX003 (ip), vehicle: saline): 102 % of control
T/C [1]: 102 % of control and 112 % of control and 113 % of control
T/C [2]: 115 % of control and 122 % of control and 116 % of control
T/C (dose: 150.0 mg/kg/injection, schedule: Q04DX003 (ip), vehicle: saline): 122 % of control
T/C [3]: 94 % of control [middle of 4 runs]
T/C (dose: 300.0 mg/kg/injection, schedule: Q01DX009 (ip), vehicle: saline): 100 % of control
T/C (dose: 300.0 mg/kg/injection, schedule: Q04DX003 (ip), vehicle: saline): 108 % of control and 114 % of control
T/C (dose: 400.0 mg/kg/injection, schedule: Q04DX003 (ip), vehicle: saline): 121 % of control

COc1cc2cc(c1Cl)N(C)C(=O)CC(OC(C)=O)C1(C)OC1C(C)C1CC(O)(NC(=O)O1)C(OC)C=C/C=C(\C)C2 (stereo not given)
T/C (dose: 0.2 micrograms/kg/injection, schedule: Q01DX009 (ip), vehicle: saline + alcohol): 90 % of control
T/C (dose: 0.4 micrograms/kg/injection, schedule: Q01DX009 (ip), vehicle: saline + alcohol): 95 % of control
T/C (dose: 0.8 micrograms/kg/injection, schedule: Q01DX009 (ip), vehicle: saline + alcohol): 95 % of control and 110 % of control
T/C (dose: 1.5 micrograms/kg/injection, schedule: Q01DX009 (ip), vehicle: saline + alcohol): 150 % of control
T/C [4]: 100 % of control
T/C [5]: 110 % of control
T/C [6]: 150 % of control
T/C [7]: 158 % of control
T/C [8]: 170 % of control and 173 % of control
T/C (dose: 50.0 micrograms/kg/injection, schedule: Q01DX009 (ip), vehicle: saline + alcohol): 183 % of control (2×) and 190 % of control
T/C (dose: 100.0 micrograms/kg/injection, schedule: Q01DX009 (ip), vehicle: saline + alcohol): 230 % of control and 204 % of control
T/C (dose: 200.0 micrograms/kg/injection, schedule: Q01DX009 (ip), vehicle: saline + alcohol): 100 % of control

CCCCSc1cc(Cc2cc(C)ccc2O)c(O)c(Cc2cc(C)ccc2O)c1
T/C (dose: 50.0 mg/kg/injection, schedule: Q01DX009 (ip), vehicle: other): 107 % of control
T/C (dose: 100.0 mg/kg/injection, schedule: Q01DX009 (ip), vehicle: other): 107 % of control

C[n+]1c(-c2cc(Cl)cc(Cl)c2)c2cc([N+](=O)[O-])ccc2c2ccccc21
T/C (dose: 50.0 mg/kg/injection, schedule: Q04DX003 (ip), vehicle: water): 120 % of control
T/C (dose: 200.0 mg/kg/injection, schedule: Q04DX003 (ip), vehicle: water): 122 % of control
T/C (dose: 400.0 mg/kg/injection, schedule: Q04DX003 (ip), vehicle: water): 110 % of control

COc1cc2cc(c1Cl)N(C)C(=O)CC(OC(=O)C(C)C)C1(C)OC1C(C)C1CC(O)(NC(=O)O1)C(OC)/C=C/C=C(/C)C2OC(C)=O (stereo not given)
T/C [4]: 162 % of control
T/C [5]: 150 % of control
T/C [6]: 166 % of control
T/C [7]: 179 % of control
T/C [8]: 170 % of control

CCOC(=O)C1(C(C)C)OC2CCCCCN2C1=O (stereo not given)
T/C [9]: 100 % of control
T/C [10]: 108 % of control
T/C [11]: 100 % of control
T/C [12]: 108 % of control

Cc1sc2c(c1-c1ccccc1)C(=O)CCCN2
T/C (dose: 25.0 mg/kg/injection, schedule: Q01DX005 (ip), vehicle: saline with Tween-80): 108 % of control
T/C (dose: 50.0 mg/kg/injection, schedule: Q01DX005 (ip), vehicle: saline with Tween-80): 101 % of control
T/C [9]: 107 % of control
T/C (dose: 100.0 mg/kg/injection, schedule: Q01DX005 (ip), vehicle: saline with Tween-80): 118 % of control
T/C [10]: 107 % of control
T/C (dose: 200.0 mg/kg/injection, schedule: Q01DX005 (ip), vehicle: saline with Tween-80): 118 % of control
T/C [11]: 105 % of control
T/C [12]: 105 % of control

NCC(=O)NC1(C(=O)O)CCCC1 (H-Gly-[Ac5c]-OH)
T/C (dose: 100.0 mg/kg/injection, schedule: Q01DX009 (ip), vehicle: saline): 113 % of control
T/C [3]: 90 % of control

CC(=O)OC1C(CO)OC2C1Oc1nc(=N)c(F)cn12 (stereo not given)
T/C (dose: 1.56 mg/kg/injection, schedule: Q01DX009 (ip), vehicle: saline): 176 % of control
T/C (dose: 3.13 mg/kg/injection, schedule: Q01DX009 (ip), vehicle: saline): 92 % of control and 102 % of control

COc1cccc(NN)c1
T/C (dose: 25.0 mg/kg/injection, schedule: Q01DX009 (ip), vehicle: saline): 113 % of control
T/C [1]: 104 % of control
T/C [2]: 100 % of control
T/C (dose: 100.0 mg/kg/injection, schedule: Q04DX003 (ip), vehicle: saline): 91 % of control

NC/C(=N\O)c1ccc(C(F)(F)F)cc1
T/C (dose: 50.0 mg/kg/injection, schedule: Q01DX001 (ip), vehicle: Klucel (hydroxypropylcellulose) (HPC)): 105 % of control
T/C (dose: 100.0 mg/kg/injection, schedule: Q01DX001 (ip), vehicle: Klucel (hydroxypropylcellulose) (HPC)): 114 % of control
T/C (dose: 200.0 mg/kg/injection, schedule: Q01DX001 (ip), vehicle: Klucel (hydroxypropylcellulose) (HPC)): 105 % of control

CCC(=O)Nc1ccc(C)cc1C
T/C (dose: 100.0 mg/kg/injection, schedule: Q01DX009 (ip), vehicle: Klucel (hydroxypropylcellulose) (HPC)): 104 % of control
T/C (dose: 100.0 mg/kg/injection, schedule: Q04DX003 (ip), vehicle: Klucel (hydroxypropylcellulose) (HPC)): 104 % of control
T/C (dose: 200.0 mg/kg/injection, schedule: Q01DX009 (ip), vehicle: Klucel (hydroxypropylcellulose) (HPC)): 100 % of control
T/C (dose: 200.0 mg/kg/injection, schedule: Q04DX003 (ip), vehicle: Klucel (hydroxypropylcellulose) (HPC)): 90 % of control
T/C (dose: 400.0 mg/kg/injection, schedule: Q01DX009 (ip), vehicle: Klucel (hydroxypropylcellulose) (HPC)): 95 % of control
T/C (dose: 400.0 mg/kg/injection, schedule: Q04DX003 (ip), vehicle: Klucel (hydroxypropylcellulose) (HPC)): 90 % of control

CCCCCCCCCCCC(=O)CCCCC
T/C (dose: 100.0 mg/kg/injection, schedule: Q04DX003 (ip), vehicle: other): 100 % of control
T/C (dose: 200.0 mg/kg/injection, schedule: Q04DX003 (ip), vehicle: other): 100 % of control
T/C (dose: 400.0 mg/kg/injection, schedule: Q04DX003 (ip), vehicle: other): 104 % of control
